Assay results taken from ChEMBL document CHEMBL3425465, “Synthesis, antimalarial and antitubercular activities of meridianin derivatives” (Eur J Med Chem, 2015).
Converted amounts (≈) assume the structure as drawn.

Key:
[1] = tested on: Plasmodium falciparum; experiment: Antiplasmodial activity against Plasmodium falciparum D6 infected in human RBC assessed as parasite growth inhibition measured as LDH activity after 72 hrs by plate reader analysis; assay type: functional, organism-based
[2] = tested on: Plasmodium falciparum; experiment: Antiplasmodial activity against Plasmodium falciparum W2 infected in human RBC assessed as parasite growth inhibition measured as LDH activity after 72 hrs by plate reader analysis; assay type: functional, organism-based
[3] = tested on: Vero; experiment: Cytotoxicity against African green monkey Vero cells assessed as cell growth inhibition after 48 hrs by neutral red assay; assay type: cell-based; settings: Chlorocebus sabaeus
[4] = tested on: LLC-PK1; experiment: Cytotoxicity against pig LLC-PK1 cells assessed as cell growth inhibition after 48 hrs by neutral red assay; assay type: cell-based; settings: Sus scrofa, LLC-PK1, 48 h
[5] = tested on: SK-MEL; experiment: Cytotoxicity against human SK-MEL cells assessed as cell growth inhibition after 48 hrs by neutral red assay; assay type: cell-based
[6] = tested on: KB; experiment: Cytotoxicity against human KB cells assessed as cell growth inhibition after 48 hrs by neutral red assay; assay type: cell-based
[7] = tested on: BT-549; experiment: Cytotoxicity against human BT549 cells assessed as cell growth inhibition after 48 hrs by neutral red assay; assay type: cell-based; settings: BT-549, 48 h
[8] = tested on: SK-OV-3; experiment: Cytotoxicity against human SKOV3 cells assessed as cell growth inhibition after 48 hrs by neutral red assay; assay type: cell-based; settings: SK-OV-3, 48 h
[9] = Selectivity index, ratio of IC50 for African green monkey VERO cells to IC50 for Plasmodium falciparum D6
[10] = Selectivity index, ratio of IC50 for pig LLC-PK1 cells to IC50 for Plasmodium falciparum D6
[11] = Selectivity index, ratio of IC50 for African green monkey VERO cells to IC50 for Plasmodium falciparum W2
[12] = Selectivity index, ratio of IC50 for pig LLC-PK1 cells to IC50 for Plasmodium falciparum W2
[13] = Retention time of the compound by HPLC analysis; assay type: physicochemical
[14] = tested on: Mycobacterium tuberculosis; experiment: Antitubercular activity against Mycobacterium tuberculosis H37Rv assessed as […] inhibition after 7 days by broth microdilution assay; assay type: functional; settings: 168 h
[15] = Plasmodium falciparum, D6, 72 h, read-out: IC50
[16] = Plasmodium falciparum, D6, 72 h, read-out: pIC50 (converted)
[17] = Plasmodium falciparum, W2, 72 h, read-out: IC50
[18] = Plasmodium falciparum, W2, 72 h, read-out: pIC50 (converted)

Structure (SMILES): CC(C)(C)c1ccc(S(=O)(=O)n2cc(-c3ccnc(N)n3)c3cc(Br)ccc32)cc1
- IC50 [1, 15]: 8.36 µM
- IC50 [1, 16]: 8.36 µM
- IC50 [2, 17]: 8.74 µM
- IC50 [2, 18]: 8.75 µM
- IC50 [3]: > 51 µM
- IC50 [4]: > 51 µM
- IC50 [5]: > 51 µM
- IC50 [6]: > 51 µM
- IC50 [7]: > 51 µM
- IC50 [8]: > 51 µM
- Ratio IC50 [9]: >6.1
- Ratio IC50 [10]: >6.1
- Ratio IC50 [11]: >5.9
- Ratio IC50 [12]: >5.9
- Retention_time [13]: 13.2 min

Structure (SMILES): Cc1cc(C)c(S(=O)(=O)n2cc(-c3ccnc(N)n3)c3cc(Br)ccc32)c(C)c1
- IC50 [1, 15]: 8.12 µM
- IC50 [1, 16]: 8.13 µM
- IC50 [2, 17]: 8.36 µM
- IC50 [2, 18]: 8.36 µM
- IC50 [3]: > 53 µM
- IC50 [4]: > 53 µM
- IC50 [5]: > 53 µM
- IC50 [6]: > 53 µM
- IC50 [7]: > 53 µM
- IC50 [8]: > 53 µM
- Ratio IC50 [9]: >6.5
- Ratio IC50 [10]: >6.5
- Ratio IC50 [11]: >6.3
- Ratio IC50 [12]: >6.3
- Retention_time [13]: 10.66 min

Structure (SMILES): Nc1nccc(-c2cn(S(=O)(=O)c3ccc([N+](=O)[O-])cc3)c3ccc(Br)cc23)n1
- IC50 [1, 15]: 4.86 µM
- IC50 [1, 16]: 4.86 µM
- IC50 [2, 17]: 6.39 µM
- IC50 [2, 18]: 6.38 µM
- IC50 [3]: > 52 µM
- IC50 [4]: > 52 µM
- IC50 [5]: > 52 µM
- IC50 [6]: > 52 µM
- IC50 [7]: > 52 µM
- IC50 [8]: > 52 µM
- Ratio IC50 [9]: >10.8
- Ratio IC50 [10]: >10.8
- Ratio IC50 [11]: >8.2
- Ratio IC50 [12]: >8.2
- Retention_time [13]: 7.78 min

Structure (SMILES): N#Cc1ccc(S(=O)(=O)n2cc(-c3ccnc(N)n3)c3ccccc32)cc1
- IC50 [1, 15]: 11 µM
- IC50 [1, 16]: 11 µM
- IC50 [2, 17]: 8.98 µM
- IC50 [2, 18]: 8.97 µM
- IC50 [3]: > 66 µM
- IC50 [4]: > 66 µM
- IC50 [5]: > 66 µM
- IC50 [6]: > 66 µM
- IC50 [7]: > 66 µM
- IC50 [8]: > 66 µM
- Ratio IC50 [9]: >6
- Ratio IC50 [10]: >6
- Ratio IC50 [11]: >7.4
- Ratio IC50 [12]: >7.4
- Retention_time [13]: 7.02 min

Structure (SMILES): N#Cc1ccc(S(=O)(=O)n2cc(-c3ccnc(N)n3)c3cc(Br)ccc32)cc1
- IC50 [1, 15]: 10.3 µM
- IC50 [1, 16]: 10.3 µM
- IC50 [2, 17]: 5.2 µM
- IC50 [2, 18]: 5.2 µM
- IC50 [3]: > 55 µM
- IC50 [4]: > 55 µM
- IC50 [5]: > 55 µM
- IC50 [6]: > 55 µM
- IC50 [7]: > 55 µM
- IC50 [8]: > 55 µM
- Ratio IC50 [9]: >5.3
- Ratio IC50 [10]: >5.3
- Ratio IC50 [11]: >10.6
- Ratio IC50 [12]: >10.6
- MIC90 [14]: 70.6 µM (≈ 32.1 µg/mL)
- Retention_time [13]: 7.09 min

Structure (SMILES): Nc1nccc(-c2cn(S(=O)(=O)c3cccc(C(F)(F)F)c3)c3ccccc23)n1
- IC50 [1]: Not Active
- IC50 [2]: Not Active
- MIC90 [14]: 153 µM (≈ 64.1 µg/mL)
- Retention_time [13]: 8.34 min

Structure (SMILES): Nc1nccc(-c2cn(S(=O)(=O)c3cccc(C(F)(F)F)c3)c3ccc(Br)cc23)n1
- IC50 [1, 15]: 9.3 µM
- IC50 [1, 16]: 9.29 µM
- IC50 [2, 17]: 5.34 µM
- IC50 [2, 18]: 5.35 µM
- IC50 [3]: > 50 µM
- IC50 [4]: > 50 µM
- IC50 [5]: > 50 µM
- IC50 [6]: > 50 µM
- IC50 [7]: > 50 µM
- IC50 [8]: > 50 µM
- Ratio IC50 [9]: >5.4
- Ratio IC50 [10]: >5.4
- Ratio IC50 [11]: >9.4
- Ratio IC50 [12]: >9.4
- Retention_time [13]: 8.61 min

Structure (SMILES): Nc1nccc(-c2cn(S(=O)(=O)c3ccc(C(F)(F)F)cc3)c3ccc(Br)cc23)n1
- IC50 [1, 15]: 8.92 µM
- IC50 [1, 16]: 8.91 µM
- IC50 [2, 17]: 9.41 µM
- IC50 [2, 18]: 9.42 µM
- IC50 [3]: > 50 µM
- IC50 [4]: > 50 µM
- IC50 [5]: > 50 µM
- IC50 [6]: > 50 µM
- IC50 [7]: > 50 µM
- IC50 [8]: > 50 µM
- Ratio IC50 [9]: >5.6
- Ratio IC50 [10]: >5.6
- Ratio IC50 [11]: >5.3
- Ratio IC50 [12]: >5.3
- Retention_time [13]: 9.54 min

Structure (SMILES): Nc1nccc(-c2cn(S(=O)(=O)c3ccc(OC(F)(F)F)cc3)c3ccc(Br)cc23)n1
- IC50 [1]: Not Active
- IC50 [2]: Not Active
- MIC90 [14]: 62.5 µM (≈ 32.1 µg/mL)
- Retention_time [13]: 9.54 min

Structure (SMILES): Nc1nccc(-c2cn(S(=O)(=O)c3ccc(C(F)(F)F)cc3[N+](=O)[O-])c3ccc(Br)cc23)n1
- IC50 [1, 15]: 2.56 µM
- IC50 [1, 16]: 2.56 µM
- IC50 [2, 17]: 3.41 µM
- IC50 [2, 18]: 3.41 µM
- IC50 [3]: > 46 µM
- IC50 [4]: > 46 µM
- IC50 [5]: > 46 µM
- IC50 [6]: > 46 µM
- IC50 [7]: > 46 µM
- IC50 [8]: > 28 µM
- Ratio IC50 [9]: >18
- Ratio IC50 [10]: >18
- Ratio IC50 [11]: >13.5
- Ratio IC50 [12]: >13.5
- MIC90 [14]: 118 µM (≈ 64.2 µg/mL)
- Retention_time [13]: 8.26 min

Structure (SMILES): CC(=O)Nc1ccc(S(=O)(=O)n2cc(-c3ccnc(N)n3)c3cc(Br)ccc32)cc1
- IC50 [1, 15]: 9.33 µM
- IC50 [1, 16]: 9.33 µM
- IC50 [2, 17]: 9.14 µM
- IC50 [2, 18]: 9.14 µM
- IC50 [3]: > 51 µM
- IC50 [4]: > 51 µM
- IC50 [5]: > 51 µM
- IC50 [6]: > 51 µM
- IC50 [7]: > 51 µM
- IC50 [8]: > 51 µM
- Ratio IC50 [9]: >5.5
- Ratio IC50 [10]: >5.5
- Ratio IC50 [11]: >5.6
- Ratio IC50 [12]: >5.6
- Retention_time [13]: 6.95 min

Structure (SMILES): Cc1ccsc1C(=O)n1cc(-c2ccnc(N)n2)c2ccccc21
- MIC90 [14]: 192 µM (≈ 64.1 µg/mL)
- Retention_time [13]: 8.48 min

Structure (SMILES): Nc1nccc(-c2c[nH]c3ccccc23)n1
- Ratio IC50 [9]: >12.3
- Ratio IC50 [10]: >11.1
- Ratio IC50 [11]: >26.8
- Ratio IC50 [12]: >24.1
- MIC90 [14]: 305 µM (≈ 64.1 µg/mL)

Structure (SMILES): COc1cccc2c1C(=O)c1c(O)c3c(c(O)c1C2=O)C[C@@](O)(C(=O)CO)C[C@@H]3O[C@H]1C[C@H](N)[C@H](O)[C@H](C)O1 [DOXORUBICIN]
- IC50 [3]: > 9 µM
- IC50 [7]: 1.6 µM

Structure (SMILES): Nc1nccc(-c2c[nH]c3ccc(Br)cc23)n1 [MERIDIANIN C]
- Ratio IC50 [9]: >6
- Ratio IC50 [10]: >6
- Ratio IC50 [11]: >7.4
- Ratio IC50 [12]: >7.4
- MIC90 [14]: 111 µM (≈ 32.1 µg/mL)

Structure (SMILES): CO[C@H]1/C=C/O[C@@]2(C)Oc3c(C)c(O)c4c(O)c(c(/C=N/N5CCN(C)CC5)c(O)c4c3C2=O)NC(=O)/C(C)=C\C=C\[C@H](C)[C@H](O)[C@@H](C)[C@@H](O)[C@@H](C)[C@H](OC(C)=O)[C@@H]1C [RIFAMPIN]
- MIC90 [14]: 0.07 µM (≈ 0.0576 µg/mL)
